Measured values from patent US11299760B2 (Amgen Inc., priority 2013, dated 2022).

Legend:
[1] = test system: recombinant cell line producing MAb E; experiment: ATF bioreactors, cell culture performance; assay type: cell-based; details: 500 nM monensin for ~22 hours from day 8; ATF reactors Ra, Rb
Procedure: Cells in the control reactor (black circles) were grown in the absence of monensin. Viable cell density is illustrated in FIG. 1. FIG. 2 presents the results of viability analysis. […] Daily spent medium samples were also submitted for titer analysis.
The applicability of using monensin to modulate high mannose levels in a large scale, controlled production setting was evaluated using a recombinant cell line producing MAb E in alternating tangential flow (ATF) bioreactors. MAb E cells grown in growth medium for the seed train were used to inoculate the N-1 bioreactor at 6×10^5 cells/ml in growth medium. The cells from N-1 bioreactor were then used to inoculate three, 2 L production bioreactors (N) at 7.5×10^5 cells/ml in base perfusion medium (referred to as control, Ra, and Rb bioreactors).
The production bioreactors were grown for 20 days at pH 7.00, 36° C., 30% DO and 400 rpm agitation. These production tanks were run with the ATF system starting on day 3 with 0.5 vol/day perfusion rate, which was increased to 0.6 vol/day, 0.8352 vol/day and 1 vol/day on day 6, 7 and 8, respectively. Glucose levels were maintained separately at 5 g/L since the perfusion medium was prepared without glucose.
Antifoam was also added into the tank as needed, while 1M Sodium Carbonate was used to maintain pH at the desired setpoint. […]

Cells producing MAb D = experiment: mock perfusion assay, cell culture parameters; assay type: cell-based, Chinese hamster; details: for CVCD / Cumulative Titer / End of Production Viability / qP: MAb D
Procedure: (§1) Mock perfusion assay is a small scale, plate-based assay that is designed to mimic perfusion conditions in bioreactors through daily medium exchanges. For a 10-day mock perfusion assay, passaging cultures of various production cell lines were diluted 1:5 into chemically defined base perfusion medium in a 24 deep-well plate at a final volume of 3 ml per well. Mock perfusion was initiated on day 3 when the cells were spun down at 1000 rpm for 5 minutes and 25% of each spent culture medium was exchanged with the equivalent volume of fresh perfusion media. Subsequent medium exchange percentages were 40% on days 4-8 and 50% on day 9. Exchanged supernatants were stored at 4° C. prior to analysis.
(§2) Analysis of cell culture parameters was also started on day 3; viable cell density and viability were analyzed using the ViaCount Guava assay as previously described. Glucose was measured daily starting on day 3 and was maintained at 12 g/l. Stored supernatants were analyzed for antibody titer as described previously. Samples of supernatant fluid from days 6, 8 and 10 were also analyzed for the presence and type of glycans by HILIC analysis.
(§3) The cell lines used included three production cell lines that are known to generate mAbs with low high mannose glycans (MAb A, MAb B and MAb C) and one production cell line that consistently produces product with high levels of high mannose glycans (MAb D). […] Equivalent volumes of methanol were added daily to control cultures (columns 1 and 2 of the 24-well plate). This scheme is depicted below:
(§4) Viable cell density (VCD) and viability were measured daily starting on day 3. Spent medium samples were collected on days 3-10 and were subjected to titer analysis. Viable cell densities were used to calculate cumulative viable cell densities, which were along with cumulative titer values used to calculate specific productivities (qP). Every value shown is an average of duplicates.

Cells producing MAb C = experiment: mock perfusion assay, cell culture parameters; assay type: cell-based, Chinese hamster; details: for CVCD / Cumulative Titer / End of Production Viability / qP: MAb C
Procedure: as §1, §2, §3, §4

Cells producing MAb A = experiment: mock perfusion assay, cell culture parameters; assay type: cell-based, Chinese hamster; details: for CVCD / Cumulative Titer / End of Production Viability / qP: MAb A
Procedure: as §1, §2, §3, §4

Cells producing MAb B = experiment: mock perfusion assay, cell culture parameters; assay type: cell-based, Chinese hamster; details: for CVCD / Cumulative Titer / End of Production Viability / qP: MAb B
Procedure: as §1, §2, §3, §4

[2] = increasing monensin (to 100 nM)

CC[C@@]1([C@@H]2O[C@@H]([C@H]3O[C@@](O)(CO)[C@H](C)C[C@@H]3C)C[C@@H]2C)CC[C@H]([C@]2(C)CC[C@]3(C[C@H](O)[C@@H](C)[C@@H]([C@@H](C)[C@@H](OC)[C@H](C)C(=O)O)O3)O2)O1 [monensin]
impact on cell growth and viability [1]: slight negative impact on cell growth and viability
titers compared to the control tank [1]: marginally improved titers
effect on cell growth (Cells producing MAb D; MAb D cells, mock perfusion): similar, though not as pronounced, negative growth impact
effect on titer and specific productivity (Cells producing MAb D; MAb D cells, mock perfusion): slightly decreased the titer of MAb D cells but had no effect on specific productivity
CVCD (Cells producing MAb D; constant monensin 25 nM): 104 10^6 c-day/ml
Cumulative Titer (Cells producing MAb D; constant monensin 25 nM): 4.5 g/L
End of Production Viability (Cells producing MAb D; constant monensin 25 nM): 68%
qP (Cells producing MAb D; constant monensin 25 nM): 43 pg/c/d
CVCD (Cells producing MAb D; [2]): 89 10^6 c-day/ml
Cumulative Titer (Cells producing MAb D; [2]): 3.6 g/L
End of Production Viability (Cells producing MAb D; [2]): 53%
qP (Cells producing MAb D; [2]): 41 pg/c/d
effect on cumulative viable cell density and viability (Cells producing MAb C; MAb C cells, mock perfusion): slightly increased cumulative viable cell density and improved the viability
effect on titer and specific productivity (Cells producing MAb C; MAb C cells, mock perfusion): increased titer but slightly lower specific productivity
titer and cell culture impacts (Cells producing MAb C; MAb C cells, mock perfusion with monensin): no drop in titer or any other negative cell culture impacts
CVCD (Cells producing MAb C; constant monensin 25 nM): 215 10^6 c-day/ml
Cumulative Titer (Cells producing MAb C; constant monensin 25 nM): 7.4 g/L
End of Production Viability (Cells producing MAb C; constant monensin 25 nM): 77%
qP (Cells producing MAb C; constant monensin 25 nM): 34 pg/c/d
CVCD (Cells producing MAb C; [2]): 208 10^6 c-day/ml
Cumulative Titer (Cells producing MAb C; [2]): 7.1 g/L
End of Production Viability (Cells producing MAb C; [2]): 77%
qP (Cells producing MAb C; [2]): 34 pg/c/d
effect on cell growth (Cells producing MAb A; MAb A cells, mock perfusion): decrease in total cell mass accumulation
effect on titer and specific productivity (Cells producing MAb A; MAb A cells, mock perfusion): decreased titer but increased specific productivity
CVCD (Cells producing MAb A; constant monensin 25 nM): 57 10^6 c-day/ml
Cumulative Titer (Cells producing MAb A; constant monensin 25 nM): 5.9 g/L
End of Production Viability (Cells producing MAb A; constant monensin 25 nM): 78%
qP (Cells producing MAb A; constant monensin 25 nM): 103 pg/c/d
CVCD (Cells producing MAb A; increasing monensin (to 50 nM)): 57 10^6 c-day/ml
Cumulative Titer (Cells producing MAb A; increasing monensin (to 50 nM)): 5.8 g/L
End of Production Viability (Cells producing MAb A; increasing monensin (to 50 nM)): 80%
qP (Cells producing MAb A; increasing monensin (to 50 nM)): 101 pg/c/d
effect on growth or viability (Cells producing MAb B; MAb B cells, mock perfusion): no effect on the growth or viability
effect on titer and specific productivity (Cells producing MAb B; MAb B cells, mock perfusion): no impact on either titer or specific productivity
CVCD (Cells producing MAb B; constant monensin 25 nM): 89 10^6 c-day/ml
Cumulative Titer (Cells producing MAb B; constant monensin 25 nM): 3.5 g/L
End of Production Viability (Cells producing MAb B; constant monensin 25 nM): 85%
qP (Cells producing MAb B; constant monensin 25 nM): 40 pg/c/d
CVCD (Cells producing MAb B; [2]): 88 10^6 c-day/ml
Cumulative Titer (Cells producing MAb B; [2]): 3.6 g/L
End of Production Viability (Cells producing MAb B; [2]): 83%
qP (Cells producing MAb B; [2]): 40 pg/c/d
